Test results as given in US8299107B2, “Triazole compounds that modulate HSP90 activity” (Synta Pharmaceuticals Corporation, priority 2007, dated 2012).

Test system: Her2
Test: Degradation of Her2 in BT-474 cells, Western blot (Method 1)
Format: cell-based, human
Details: 0.5 μM, overnight, positive control
Experimental: Human high-Her2 breast carcinoma BT474 (HTB-20), SK-BR-3 (HTB-30) and MCF-7 breast carcinoma (HTB-22) from American Type Culture Collection, VA, USA were grown in Dulbecco's modified Eagle's medium with 4 mM L-glutamine and antibiotics (100 IU/ml penicillin and 100 ug/ml streptomycine; GibcoBRL). To obtain exponential cell growth; cells were trypsinized, counted and seeded at a cell density of 0.5×10^6 cells/ml regularly, every 3 days. All experiments were performed on day 1 after cell passage.
BT-474 cells are treated with 0.5 μM, 2 μM, or 5 μM of 17AAG (a positive control) or 0.5 μM, 2 μM, or 5 μM of a compound of the invention overnight in DMEM medium. After treatment, each cytoplasmic sample is prepared from 1×10^6 cells by incubation of cell lysis buffer (#9803, cell Signaling Technology) on ice for 10 minutes. The resulting supernatant used as the cytosol fractions is dissolved with sample buffer for SDS-PAGE and run on a SDS-PAGE gel, blotted onto a nitrocellulose membrane by using semi-dry transfer. Non-specific binding to nitrocellulose is blocked with 5% skim milk in TBS with 0.5% Tween at room temperature for 1 hour, then probed with anti-Her2/ErB2 mAb (rabbit IgG, #2242, Cell Signaling) and anti-Tubulin (T9026, Sigma) as housekeeping control protein. […]

Q: C=CCNC1=C2C[C@@H](C)C[C@H](OC)[C@H](O)[C@@H](C)/C=C(\C)[C@H](OC(N)=O)[C@@H](OC)/C=C\C=C(/C)C(=O)NC(=CC1=O)C2=O [Compound 17AAG, 17-allylamino-17-demethoxygeldanamycin] was tested. Which “degradation of Her2” value did it give?
A: partial degradation of Her2
